Values after ≈ are worked out from the molar mass of the structure shown. Active and inactive are the calls of the source. No cut-off for these calls is given here.

For series [1], the system named is Staphylococcus saprophyticus. The series can be described thus: Antibacterial activity against Staphylococcus saprophyticus ATCC 15305 assessed as zone of inhibition at 54 ug/disc measured after 16 to 24 hrs by agar diffusion method. The series is classed as functional. The settings on record: read-out: DIZ. Background: A growth-free zone around the sample is the usual read-out of agar diffusion tests.

Series [2] has as its system Staphylococcus saprophyticus. The series is described as follows: Antibacterial activity against Staphylococcus saprophyticus ATCC 15305 measured after 18 hrs by broth dilution method. The series is classed as functional. The settings on record: ATCC 15305, 18 h. On the technique in general: Dilution methods test growth across graded concentrations, often in twofold steps.

Series [3] in a line: Drug level assessed as Staphylococcus saprophyticus ATCC 15305 nitroreductase B mediated compound formation using 130 uM NO2-SMX measured after 200 mins in presence of NADPH-cofactor generating system by LC-MS/MS analysis. The settings on record: isolated protein. The series is classed as ADME.
Series [4] deals with Staphylococcus saprophyticus. The series is described as follows: Antibacterial activity against Staphylococcus saprophyticus ATCC 15305 measured after 18 hrs by agar dilution method. The series is classed as functional. The settings on record: ATCC 15305, 18 h. (Agar dilution tests growth on a series of plates holding different concentrations.)
The nature of series [5]: Prodrug activation assessed as Staphylococcus saprophyticus ATCC 15305 nitroreductase B mediated […] at 130 uM measured after 200 mins in presence of NADPH-cofactor generating system by LC-MS/MS analysis. The settings on record: isolated protein.
Series [6] in a line: Prodrug activation assessed as Staphylococcus saprophyticus ATCC 15305 nitroreductase B mediated N-OH-sulfamethoxazole formation at 130 uM measured after 200 mins in presence of NADPH-cofactor generating system by LC-MS/MS analysis. The settings on record: isolated protein.
Series [7] is described as follows: Prodrug activation assessed as Staphylococcus saprophyticus ATCC 15305 nitroreductase B mediated sulfamethoxazole formation at 130 uM measured after 200 mins in presence of NADPH-cofactor generating system by LC-MS/MS analysis. The settings on record: isolated protein.
Series [8] is described as follows: Prodrug activation assessed as Staphylococcus saprophyticus ATCC 15305 nitroreductase B mediated N-OH-sulfamethoxazole formation at 2 mM in presence of NADPH-cofactor generating system by ESI-MS analysis. The settings on record: isolated protein, 2000 µM.
Series [9] deals with Staphylococcus saprophyticus. The series can be described thus: Antibacterial activity against Staphylococcus saprophyticus ATCC 15305 assessed as zone of inhibition at 57 ug/disc measured after 16 to 24 hrs by agar diffusion method. It is filed as functional.
Series [10] can be described thus: Prodrug activation assessed as Staphylococcus saprophyticus ATCC 15305 nitroreductase B mediated sulfamethoxazole formation at 2 mM in presence of NADPH-cofactor generating system by ESI-MS analysis. The settings on record: isolated protein, 2000 µM.
Series [11] in a line: Drug level assessed as Staphylococcus saprophyticus ATCC 15305 nitroreductase B mediated compound formation using at 2 mM NO2-SMX 2 mM in presence of NADPH-cofactor generating system by ESI-MS analysis. It is filed as ADME. The settings on record: isolated protein, 2000 µM.
Series [12] has as its system Staphylococcus saprophyticus. The series is described as follows: Activity at Staphylococcus saprophyticus ATCC 15305 nitroreductase B by UV-vis spectrophotometry based Michaelis-Menten plot analsysis.
The nature of series [13]: Prodrug activation assessed as Staphylococcus saprophyticus ATCC 15305 nitroreductase B mediated […] at 2 mM in presence of NADPH-cofactor generating system by ESI-MS analysis. The settings on record: isolated protein, 2000 µM.
Series [14] in a line: Stability of the compound. It is filed as physicochemical.
For series [15], the system named is Staphylococcus saprophyticus. The series can be described thus: microbe, parasite or virus in culture. The settings on record: ATCC 15305, read-out: DIZ.
Description: Antibacterial activity against Staphylococcus saprophyticus ATCC 15305 assessed as zone of inhibition at 300 ug/disc measured after 16 to 24 hrs by agar diffusion method
In series [16] the test system is Staphylococcus saprophyticus. The series is described as follows: Antibacterial activity against Staphylococcus saprophyticus ATCC 15305 assessed as zone of inhibition at 51 ug/disc measured after 16 to 24 hrs by agar diffusion method. It is filed as functional. The settings on record: read-out: DIZ.
Series [17] has as its system Staphylococcus saprophyticus. The series can be described thus: Antibacterial activity against Staphylococcus saprophyticus ATCC 15305 assessed as bacterial survival measured after 18 hrs by broth dilution method. The series is classed as functional.

In the case of `Cc1cc(NS(=O)(=O)c2ccc(NO)cc2)no1`, the zone of inhibition at 54 µg/disc in series [1] is 10 mm. The lowest concentration to inhibit growth in series [2] (MIC) was 2050 µg/mL (≈ 7.61 mM). In addition, the Drug metabolism result in series [3] is given as “metabolite_detected”.
With `NC(=O)N/N=C/c1ccc([N+](=O)[O-])o1` [NITROFURAZONE], the MIC in series [4] worked out at 128 µg/mL (≈ 0.646 mM); in series [2], 32 µg/mL (≈ 0.162 mM).
With `Cc1cc(NS(=O)(=O)c2ccc([N+](=O)[O-])cc2)no1`, the Drug metabolism result is “metabolite_detected” in series [5]; “metabolite_detected” in series [6]; “metabolite_detected” in series [7]; “metabolite_detected” in series [8]; “metabolite_notdetected” in series [10]; “metabolite_detected” in series [11]. Also, the Drug metabolism result in series [13] is reported as “metabolite_detected”. The “diameter of the inhibition zone (DIZ)” value in [9] is “inactive”. Besides, in series [12], the Km is 92.6 µM. Besides, in series [12], the kcat was determined as 2.95 s⁻¹. In addition, the MIC in series [4] and in series [2] was 2050 µg/mL (≈ 7.23 mM) in each case.
Consider `Cc1cc(NS(=O)(=O)c2ccc(N=O)cc2)no1`, for which the Stability result in [14] was “Unstable”. Further, in series [3], the Drug metabolism result is “metabolite_detected”.
As to `O=C1CN(/N=C/c2ccc([N+](=O)[O-])o2)C(=O)N1` [NITROFURANTOIN], the MIC in [4] and in series [2] was 8 µg/mL (≈ 0.0336 mM) in each case. Also, the zone of inhibition at 300 µg/disc in series [15] came to 18 mm.
`Cc1cc(NS(=O)(=O)c2ccc(N)cc2)no1` [SULFAMETHOXAZOLE]: in series [16], the zone of inhibition at 51 µg/disc was 16 mm. Also, the MIC was 2050 µg/mL (≈ 8.09 mM) in [4] and 4100 µg/mL (≈ 16.2 mM) in series [2]. Besides, the Activity in series [17] amounted to 12%. Further, in series [3], the Drug metabolism result is “metabolite_detected”.

In general, MIC refers to the least concentration at which growth counts as inhibited. Lower therefore signals greater potency. As usually defined, the Km is the concentration of substrate that gives half-maximal velocity. What is called kcat is the number of substrate molecules converted per active site and unit of time at saturation.

Source of the values: ChEMBL document CHEMBL3826959, “Modification of existing antibiotics in the form of precursor prodrugs that can be subsequently activated by nitroreductases of the target pathogen” (Bioorg Med Chem Lett, 2016).
